Results: paper PMC9905731, “PIN1 and PIN4 inhibition via parvulin impeders Juglone, PiB, ATRA, 6,7,4′-THIF, KPT6566, and EGCG thwarted hepatitis B virus replication” (Frontiers in Microbiology, 2023)

What was measured:
Assay type in all cases: cell-based
[1] = MTT cell cytotoxicity assay; conditions: human, Huh7, HepAD38, HepG2, HepG2.2.15 cells, cell line not stated, read-out: 50% cytotoxic concentration (CC50)
Protocol: Since PIN1 and PIN4 were highly expressed in HCC cells, we speculated that the inhibition of parvulins via Juglone, PiB, ATRA, 6,7,4′-THIF, KPT6566, and EGCG might affect HBV replication (Figure 2A). The optimum dosage was determined in several HCC cell lines. Compared to mock or solvent-treated 10, 20, 30, 50, or 100 μM, drug-treated cell viabilities were determined by the MTT assay in Huh7, HepAD38, HepG2, and HepG2.2.15 cells (Figure 2B). The data from triplicate experiments were used to examine 50% cytotoxic concentration (CC50) of Juglone, PiB, ATRA, 6,7,4′-THIF, KPT6566, and EGCG via the GraphPad Prism software (Figure 2C). The CC50 values for Juglone and PiB were 30 and 40 μM, respectively. […] However, KPT6566 and EGCG depicted 45 and 80 μM as CC50 values, respectively. We optimized the effects of Juglone and PiB parvulin inhibitors in diverse HBV replicating HCC cell lines at 20 μM concentration. In addition, 30 μM concentrations were used to determine the effects of ATRA, 6,7,4′-THIF, and KPT6566 on HBV replication. While a 40 μM concentration of EGCG was optimized for determining the effects on HBV replication in multiple HCC cell lines.
Figure 2 MTT assay to measure the cytotoxicity of parvulin inhibitors (Juglone, PiB, ATRA, 6,7,4′-THIF, KPT6566, and EGCG). (A) The chemical structures of parvulin inhibitors including Juglone, PiB, ATRA, 6,7,4′-THIF, KPT6566, and EGCG are shown. (B) Huh7, HepAD38, HepG2, and HepG2.2.15 cells were exposed to varying concentrations (10 μM, 20 μM, 30 μM, 50 μM, and 100 μM) of inhibitors Juglone, PiB, ATRA, 6,7,4′-THIF, KPT6566, and EGCG for 48 h and values were determined via MTT assay. (C) The concentrations of Juglone, PiB, ATRA, 6,7,4′-THIF, KPT6566, and EGCG at which cell viability was reduced to 50% (CC50) to that of the control (cells treated by the solvent) were determined. TEXT PRINTED IN THE PICTURE: (C) Juglone: CC50: 30 | (C) PiB: CC50: 40 | (C) ATRA: CC50: 45 | (C) 6,7,4 THIF: CC50: 50 | (C) KPT6566: CC50: 45 | (C) EGCG: CC50: 80 DOUBTS OF THE COPYIST ABOUT THIS PICTURE: All CC50 labels in panel C are printed small and blurred, and no unit is printed with them / Juglone, CC50: 30 or 50 / ATRA, CC50: 45 or 46 / 6,7,4 THIF, CC50: 50 or 60 / KPT6566, CC50: 45 or 46 / EGCG, CC50: 80 or 30, first digit partly overlapped by an error bar
The cytotoxic effects of parvulin inhibitors (Juglone, PiB, ATRA, 6,7,4′-THIF, KPT6566, and EGCG) via MTT (3-[4,5-dimethylththiazol-2-yl]-2,5-diphenyltetrazolium bromide) assay were determined in Huh7, HepAD38, HepG2, and HepG2.2.15 cell lines. The cells were grown in 96-well microplates and incubated with serial dilutions of Juglone, PiB, ATRA, 6,7,4′-THIF, KPT6566, or EGCG for 48 h at 37°C. The cellular viabilities were examined after replacing the culture medium with 100 μl of MTT in DMEM. After 3 h, 100 μl of DMSO was added to dissolve the formazan of MTT. The absorbance value was measured at 570 nm via plate reader. Afterward, the concentrations of Juglone, PiB, ATRA, 6,7,4′-THIF, KPT6566, and EGCG at which cell viability was reduced to 50% (CC50) to that of the control were determined.

[2] = target: PIN4 (Homo sapiens, UniProt Q9Y237); assay: PIN4 expression by immunoblotting in HCC cells; conditions: 30 μM ATRA, 72 h
PIN4, sequence (Q9Y237 whole entry): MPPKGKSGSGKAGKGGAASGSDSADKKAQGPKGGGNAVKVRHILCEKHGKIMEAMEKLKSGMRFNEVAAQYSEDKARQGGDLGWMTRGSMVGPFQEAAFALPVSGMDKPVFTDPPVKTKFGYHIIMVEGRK

[3] = target: T1, PIN1 (Homo sapiens, UniProt Q13526); assay: PIN1 expression by immunoblotting in HCC cells; conditions: 30 μM ATRA, 72 h
T1 construct: Since the endogenous PIN1 and PIN4 levels remained higher in HBV replicating and non-replicating HCC-derived cell lines; endogenous in cells; host or cells: Huh7, HepAD38, HepG2, HepG2.2.15 (human HCC cell lines)
T1 sequence (Q13526 whole entry): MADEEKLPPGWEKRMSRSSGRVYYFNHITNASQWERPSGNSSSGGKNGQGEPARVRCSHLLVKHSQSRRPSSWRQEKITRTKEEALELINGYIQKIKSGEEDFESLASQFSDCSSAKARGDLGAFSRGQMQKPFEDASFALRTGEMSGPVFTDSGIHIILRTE

SMILES | CC50 at 48 h [1] | expression level of PIN4 [2] | expression level of PIN1 [3]
CCOC(=O)CN1C(=O)c2ccc3c4c(ccc(c24)C1=O)C(=O)N(CC(=O)OCC)C3=O [PiB, 1,3,6,8-tetrahydro-1,3,6,8-tetraoxo-benzo [lmn][3,8] phenanthroline-2,7-diacetic acid, 2,7-diethyl ester] | 40 µM | – | –
O=C(O[C@@H]1Cc2c(O)cc(O)cc2O[C@@H]1c1cc(O)c(O)c(O)c1)c1cc(O)c(O)c(O)c1 [EGCG, Epigallocatechin gallate] | 80 µM | – | –
CC1=C(/C=C/C(C)=C/C=C/C(C)=C/C(=O)O)C(C)(C)CCC1 [ATRA, All-trans-retinoic acid] | 45 µM | reduced | reduced
CC(C)(C)c1ccc(S(=O)(=O)N=C2C=C(SCC(=O)O)C(=O)c3ccccc32)cc1 [KPT6566, 2-[[4-[[[4-(1,1-dimethylethyl)phenyl]sulfonyl]imino]-1,4-dihydro-1-oxo-2-naphthalenyl]thio] acetic acid] | 45 µM | – | –
O=c1c(-c2ccc(O)cc2)coc2cc(O)c(O)cc12 [6,7,4′-THIF, 6,7-dihydroxy-3-(4-hydroxyphenyl)-4H-chromen-4-one] | 50 µM | – | –
O=C1C=CC(=O)c2c(O)cccc21 [Juglone, 5-hydroxyl-1,4-naphthoquinone] | 30 µM | – | –
